Results on one molecule are retold here after US20130029928A1 (priority 2010, published 2013).

Experiment [1] concerns A375. Description: SRB cytotoxicity assay 48 hr. It is filed as cell-based, human. Conditions: read-out: IC50 Values After 48 Hrs Exposure. (Sulforhodamine B stains cellular protein and so reports cell mass.)
Procedure: (§1) The SRB assay was performed according to the method specified by the NIC/NIH. […] Assay replicates were independent in time and up to 4 replicates were performed per cell line.
Experiment [2] deals with MDA-MB-157. Description: ATP depletion cytotoxicity assay 48 hr. It is filed as cell-based, human.
Procedure: (§2) Assay replicates were independent in time and up to 4 replicates were performed per cell line.
(§3) Cells were plated at the optimal plating density for that cell line in 96-well plates and allowed to attach overnight. The next day, the medium was removed and replaced with fresh medium containing the dose ranges of test items. […] There were 3 replicates for each test item concentration.
Following exposure to Test Items, the CellTitre-Glo Luminescent Cell Viability Assay to measure ATP content was performed according to the manufacturer's detailed instructions (Promega Corporation, Technical Bulletin No. 288, and Cell notes, Issue 10, 2004).
Cells were plated at the optimal plating density for that cell line in 96-well plates and allowed to attach overnight. The next day, cells were pre-treated with the inhibitors UO126 or LY294002 (see Tables 18 & 20) for 2 hrs, the medium was removed and replaced with fresh medium containing the appropriate dose of the test item. […] Cells were exposed to these compounds in Roswell Park Memorial Institute (RPMI) medium containing 10% Foetal Calf Serum (FCS) and 2 mM Glutamine at 37° C. and 5% CO2 for 48 hours. There were 3 replicates for each test item concentration.
Following exposure to Test Items, the CellTitre-Glo Luminescent Cell Viability Assay to measure ATP content will be performed according to the manufacturer's detailed instructions (Promega Corporation, Technical Bulletin No. 288, and Cell notes, Issue 10, 2004).
In experiment [3] the test system is H (chondrosarcoma). The experiment is described as follows: ATP depletion cytotoxicity assay 48 hr. The settings on record: H.
Procedure: as §2, §3
Cells were plated at the optimal plating density for that cell line in 96-well plates and allowed to attach overnight. The next day, cells were pre-treated with the inhibitors UO126 or LY294002 (see Tables 18 & 20) for 2 hrs, the medium was removed and replaced with fresh medium containing the appropriate dose of the test item. […] Cells that were to be treated with DPQ received no pre-treatment. […] There were 3 replicates for each test item concentration.
The test system of experiment [4] is PC3. The experiment is described as follows: SRB cytotoxicity assay 48 hr. It is filed as cell-based, human. Conditions: read-out: IC50 Values After 48 Hrs Exposure.
Procedure: as §1
Experiment [5] relates to patients with advanced cancer. Description: Phase I study CXR1002-001: anti-tumour response. It is filed as in vivo, human.
The test system of experiment [6] is CaCo-2. The experiment is described as follows: SRB cytotoxicity assay 48 hr. It is filed as cell-based, human. The settings on record: read-out: IC50 Values After 48 Hrs Exposure.
Procedure: as §1

Where “and” joins values, the source holds several entries; their conditions need not be identical. Equal entries are not always repeated. Where two headings read alike, the source gives them in different places. Marks after values point to notes of the source that are not given here.

A word on the IC50: it is the concentration needed to halve the response being measured. As to `O=C(O)C(F)(F)C(F)(F)C(F)(F)C(F)(F)C(F)(F)C(F)(F)C(F)(F)F` [CXR1002], the half-inhibitory concentration (IC50) is 222 ± 21.2 µM in experiment [1]; 670 µM in experiment [2] (Homo sapiens, MDA-MB-157, 48 h, read-out: IC50 1-4 (independent replicates), ATP depletion, 48 hrs, MDA-MB-157); 665 µM in experiment [2] (Homo sapiens, MDA-MB-157, 48 h, read-out: IC50 Mean, ATP depletion, 48 hrs, MDA-MB-157); 675 µM and 650 µM in experiment [2] (read-out: IC50 1-4 (independent replicates), ATP depletion, 48 hrs, MDA-MB-157); 817 µM in experiment [3] (Example 7, 48 hour, CXR1002 0-1 mM, U0126 fixed 10 μM where combined); 550 µM and 555 µM and 800 µM in experiment [3] (read-out: IC50 1-4 (independent replicates), ATP depletion, 48 hrs). Besides, the IC50 in experiment [3] (read-out: IC50 Mean, ATP depletion, 48 hrs) was 635 µM; in experiment [4] it was 272 ± 40.7 µM; in experiment [6], 708 ± 159 µM. The “On-Study Duration” value in experiment [5] (50 mg/week, pancreatic) is reported as 35 weeks; in experiment [5] (100 mg/week, colorectal), 20 weeks; in experiment [5] (200 mg/week, anaplastic thyroid, patient remains on study), 22* weeks; in experiment [5] (200 mg/week, cervical, patient remains on study), 22* weeks. Further, the best response result in experiment [5] (investigator assessment) is “stable disease”. For the same molecule, the “duration of stable disease” value in experiment [5] (one patient with pancreatic cancer) came out at 7 months.
